Test results published in article PMC9961069 (Metabolites, 2023).
One block for each compound: values may come before it.

What was measured:
[1] = biological target: T1, purified human DHFR (Homo sapiens, UniProt P00374); experiment: DHFR enzymatic inhibition assay (NADPH absorbance at 340 nm); type: biochemical; conditions: 200 nM DHFR, 137.5 μM DHF, 125 μM NADPH; n = 2; read-out: IC50
T1 construct: made in house; host or cells: E. coli BL21 (DE3) T1R pRARE2, pNIC-Bsa4 plasmid
T1 sequence (P00374 1-187): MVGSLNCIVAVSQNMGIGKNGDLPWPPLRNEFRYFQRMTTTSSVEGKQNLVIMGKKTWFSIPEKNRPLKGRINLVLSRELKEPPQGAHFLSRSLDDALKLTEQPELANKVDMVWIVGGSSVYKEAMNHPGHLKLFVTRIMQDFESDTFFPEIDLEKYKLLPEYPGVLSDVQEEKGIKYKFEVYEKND
Description: Working stocks of each inhibitor were created so that the final concentration of DMSO in each reaction was 2% in a final reaction volume of 100 μL. […] Reactions were prepared on ice in 384-well plates. […] Consumption of NADPH by measuring absorbance at 340 nm was used to monitor the progress of the reaction. Readings were taken every 5 min for 1 h at 37 °C using a Synergy MX microplate reader (BioTek).
Percent inhibition relative to the no-inhibitor control was determined using Equation (1). (1) % Inhibition=A340Inhibitor−A340DMSO Control/A340No DHFR−A340DMSO Control×100
Percent inhibition data were then fit to the four-parameter logistic model (Equation (2)) in GraphPad Prism 9.4.1 to determine half-maximal inhibitory concentrations (IC50):(2) y=Bottom+Top−Bottom/1+IC50/x^Hill slope where y represents the percent inhibition, x represents the concentration of inhibitor (μM), the bottom and top represent the bottom and top plateaus, and the Hill slope represents the slope factor. Each experiment contained duplicates of each sample, and each experiment was performed 2 times (n = 2). An ordinary one-way ANOVA was used to test for statistical significance between treatments.

[2] = tested on: MCF-7 cells; experiment: Resazurin viability assay with or without folinic acid, MCF-7; type: cell-based, Human; conditions: 72 h; for Relative Viability (%) – Inhibitor + FA Treatment: MCF-7, 10 μM + 300 μg/mL folinic acid; for Relative Viability (%) – Inhibitor Alone: MCF-7, 10 μM, relative to DMSO; for Rescue of viability impairment by folinic acid: MCF-7, 10 μM ± 300 μg/mL FA
Description: (§1) The incorporation and metabolism of resazurin to resorufin was used to monitor cell viability. MDA-MB-468, MCF7, and MDA-MB-231 cells were grown in 96-well plates with a total of 5000 cells per well in a total volume of 180 μL for 24 h, as described above. After 24 h of growth, cells were treated with increasing concentrations of compounds (0.0457–100 μM) for 72 h. A vehicle control was also performed. […] The volume of treatment added to each well was 20 μL. For folinic acid rescue experiments, 5000 cells were treated with 10 μM compound with or without 300 μg/mL folinic acid (Supelco). After 72 h of treatment, resazurin was added to a final concentration of 44 μM, and cells were incubated for an additional 4 h at 37 °C. The fluorescence of resorufin was monitored on a Synergy MX microplate reader (BioTek) using an excitation wavelength of 540 nm and an emission wavelength of 600 nm. Percent viability relative to the DMSO control was determined. Each treatment was performed in triplicate, and each individual experiment was repeated three times (n = 3).

[3] = tested on: MDA-MB-231 cells; experiment: Resazurin viability assay with or without folinic acid, MDA-MB-231; type: cell-based, Human; conditions: 72 h; for Relative Viability (%) – Inhibitor + FA Treatment: MDA-MB-231, 10 μM + 300 μg/mL folinic acid; for Rescue of viability impairment by folinic acid: MDA-MB-231, 10 μM ± 300 μg/mL FA; for Relative Viability (%) – Inhibitor Alone: MDA-MB-231, 10 μM, relative to DMSO
Description: as §1

[4] = tested on: MDA-MB-468 cells; experiment: Resazurin viability assay with or without folinic acid, MDA-MB-468; type: cell-based, Human; conditions: 72 h; for Relative Viability (%) – Inhibitor + FA Treatment: MDA-MB-468, 10 μM + 300 μg/mL folinic acid; for Rescue of viability impairment by folinic acid: MDA-MB-468, 10 μM ± 300 μg/mL FA; for Relative Viability (%) – Inhibitor Alone: MDA-MB-468, 10 μM, relative to DMSO
Description: as §1

[5] = tested on: T2, DHFR in MDA-MB-468 lysates; experiment: Lysate cellular thermal shift assay (CETSA) for DHFR; type: binding, Human; conditions: 10 μM, MDA-MB-468 lysate, 45 °C for 3 min, DMSO at 37 °C = 100%
T2 construct: reactions containing 55 μg MDA-MB-468 lysate; endogenous in cells; host or cells: MDA-MB-468
Description: Trypsinized MDA-MB-468 cells were harvested by centrifugation at 200× g for 5 min and washed with PBS supplemented with EDTA-free PIC (Roche) and flash frozen for storage at −80 °C. Cells were lysed by resuspension in 60 μL PBS/PIC per 1 × 10^6 cells. Cells were lysed by three freeze-thaw cycles, where cells were frozen in an ethanol/dry ice bath for 3 min, immediately followed by incubation in a 37 °C water bath for 3 min. The insoluble fraction was removed by centrifugation at 20,000× g for 20 min at 4 °C. The supernatant containing the soluble lysate was removed and saved for subsequent steps.
After incubation, each reaction was transferred to a 1.5 mL tube and centrifuged at 20,000× g for 20 min at 4 °C to remove the insoluble proteins. After centrifugation, 18 μL of supernatant was carefully removed from each reaction, without disturbing any pelleted aggregates, and added to 4.5 μL of 5× SDS-PAGE loading buffer. 11 μL of each reaction was loaded onto a gel in duplicate, and proteins were detected by Western blot (as described below). Resulting band densities were fit to the Boltzmann equation to determine the melting temperature (Tm):(3) y=Bottom+Top−Bottom/1+e^Tm−x/Slope
To rescue the thermal degradation of DHFR by inhibitors, samples containing 10 μM inhibitor, 55 μg lysate, and 1% DMSO in a total volume of 28 μL in DHFR buffer were prepared in PCR tubes and incubated at room temperature for 20 min. Two DMSO-only controls were also prepared. Reactions containing inhibitors were then incubated at 45 °C for 3 min. One DMSO-only control was also heated at 45 °C for 3 min, and the other control was heated at 37 °C for 3 min. The soluble protein fraction was separated from the insoluble proteins by centrifugation, and proteins were separated by SDS-PAGE, as described above, and analyzed via Western blot, as described below. Each experiment was repeated 3 times.
(§2) Proteins were electrophoretically separated on a 10% gel, and proteins were transferred to a methanol-activated PVDF membrane using the Trans-Blot Turbo transfer system (Bio-Rad) for 7 min at 1.3 A and 25 V in Trans-Blot Turbo transfer buffer (Bio-Rad). Membranes were blocked with 5% skim milk w/v in TBS-T (20 mM Tris, 150 mM NaCl, 0.05% Tween-20) for 1 h at room temperature. […] The horseradish peroxidase (HRP)-linked anti-mouse IgG secondary antibody (NA931, Cytiva; 1:3000) was added for 1 h at room temperature in 5% skim milk w/v in TBS-T. Signal was detected by adding Immobilon Forte Western HRP Substrate (Millipore), and chemiluminescence was captured on a Sapphire Biomolecular Imager (Azure Biosystems). Band densities were determined using ImageJ (Fiji). The band intensity of DHFR was normalized to the thermostable loading control SOD1 [22].

[6] = tested on: MDA-MB468, MDA-MB-231, and MCF-7 breast cancer cell lines; experiment: Dose-response viability in breast cancer cell lines (statements not split by line); type: cell-based, Human; conditions: 0–100 μM, 72 h
Description: as §1

[7] = tested on: leukemia; parameters: method as in PMID 5479856, PMID 5479852, PMID 5241406; conditions: early studies in the 1970s; cited from earlier work
[8] = tested on: T3, DHFR in MDA-MB-468 cells; experiment: DHFR accumulation assay (Western blot); type: cell-based, Human; conditions: MDA-MB-468, 24 h, range 0.012–1 nM
T3 construct: reactions containing 55 μg MDA-MB-468 lysate; endogenous in cells; host or cells: MDA-MB-468
Description: Trypsinized MDA-MB-468 cells were seeded into 6-well plates at a density of 300,000 cells per 2 mL of media and allowed to adhere for 24 h. […] The final concentration of DMSO in each well was 1%. A DMSO-only control was also performed on each individual plate. Cells were then trypsinized, harvested by centrifugation at 200× g for 5 min at 4 °C, and washed once with PBS/PIC. Cell pellets were flash frozen using an ethanol/dry ice bath and stored at −80 °C prior to lysis. Each cell pellet was lysed as described above using 50 μL PBS/PIC per cell pellet. Samples were then analyzed by Western blot, as described below, using 30 μg lysate per lane. Band intensities of DHFR were normalized to the loading control SOD1 via densitometry using ImageJ (Fiji), and each DHFR band was normalized to the DMSO control. Fold-change in DHFR band intensity was plotted against inhibitor concentration (μM). Each experiment was performed two separate times as individual biological replicates (n = 2).
as §2

Compound: CC1(C)N=C(N)N=C(N)N1c1ccc(CCCCc2ccc(S(=O)(=O)F)cc2)cc1 [compound 123032]
IC50 [1]: 1170 ± 460 nM
Relative Viability (%) – Inhibitor + FA Treatment [2]: 104.16 ± 6.3%
Relative Viability (%) – Inhibitor Alone [2]: 81.94 ± 19.4%
Relative Viability (%) – Inhibitor + FA Treatment [3]: 103.45 ± 16.5%
Rescue of viability impairment by folinic acid [3]: largest amplitude of rescue
Relative Viability (%) – Inhibitor Alone [3]: 57.55 ± 3.1%
Relative Viability (%) – Inhibitor + FA Treatment [4]: 66.59 ± 2.1%
Rescue of viability impairment by folinic acid [4]: rescued in all but MDA-MB-468 cells
Relative Viability (%) – Inhibitor Alone [4]: 71.41 ± 10.0%
Normalized Band Density (%) of soluble DHFR [5]: greater than 100%
Normalized Band Density (%) of soluble DHFR ([5]; listed as NSC123032): 121.24 ± 45.6%
Phenotypic response in viability dose-response [6]: little effect at low concentrations and cytotoxicity at higher concentrations
Anti-leukemic activity in vivo [7]: promising anti-leukemic activity in vivo

IC50 [1]: 930 ± 240 nM
Compound: CC1(C)N=C(N)N=C(N)N1c1ccc(CCCCc2ccccc2)cc1 [compound 127153]
Relative Viability (%) – Inhibitor + FA Treatment [2]: 56.75 ± 7.9%
Rescue of viability impairment by folinic acid [2]: failed to rescue
Relative Viability (%) – Inhibitor Alone [2]: 43.03 ± 13.9%
Relative Viability (%) – Inhibitor + FA Treatment [3]: 55.71 ± 12.7%
Rescue of viability impairment by folinic acid [3]: failed to rescue
Relative Viability (%) – Inhibitor Alone [3]: 45.99 ± 10.6%
Relative Viability (%) – Inhibitor + FA Treatment [4]: 23.92 ± 7.7%
Rescue of viability impairment by folinic acid [4]: failed to rescue
Relative Viability (%) – Inhibitor Alone [4]: 17.90 ± 7.8%
Normalized Band Density (%) of soluble DHFR [5]: greater than 100%
Normalized Band Density (%) of soluble DHFR ([5]; listed as NSC127153): 100.16 ± 36.4%
Concentration giving notable accumulation of DHFR [8]: 0.33 nM
Phenotypic response in viability dose-response [6]: induce growth arrest at low concentrations and induce cell death at higher concentrations
Anti-leukemic activity in vivo [7]: promising anti-leukemic activity in vivo

IC50 [1]: 720 ± 240 nM
Compound: CC1(C)N=C(N)N=C(N)N1c1ccc(CCCCc2ccccc2)c(Cl)c1 [compound 128184]
Relative Viability (%) – Inhibitor + FA Treatment [2]: 48.65 ± 6.9%
Rescue of viability impairment by folinic acid [2]: failed to rescue
Relative Viability (%) – Inhibitor Alone [2]: 35.94 ± 11.4%
Relative Viability (%) – Inhibitor + FA Treatment [3]: 53.14 ± 12.7%
Rescue of viability impairment by folinic acid [3]: failed to rescue
Relative Viability (%) – Inhibitor Alone [3]: 42.94 ± 9.7%
Relative Viability (%) – Inhibitor + FA Treatment [4]: 16.09 ± 10.4%
Rescue of viability impairment by folinic acid [4]: failed to rescue
Relative Viability (%) – Inhibitor Alone [4]: 12.35 ± 8.6%
Concentration giving notable accumulation of DHFR [8]: 0.33 nM
Phenotypic response in viability dose-response [6]: induce growth arrest at low concentrations and induce cell death at higher concentrations
Anti-leukemic activity in vivo [7]: promising anti-leukemic activity in vivo
